According to patent US11136328B2, “3,3-difluoropiperidine carbamate heterocyclic compounds as NR2B NMDA receptor antagonists” (Rugen Holdings (Cayman) Limited, priority 2015, dated 2021):

How the values were obtained:
[1] = system: mice; assay: Forced Swim Test in mice; format: in vivo
Description: (§1) The forced swim test (FST) also known at the behavioural despair test was used to evaluate antidepressant activity (Porsolt et al., 1977 Arch. Int. Pharmacodyn. 229: 327-336, Porsolt et al., 1977, Eur. J. Pharmacol. 47:379-391). Mice or rats that are forced to swim in a situation from which they cannot escape, rapidly become immobile. Drugs with antidepressant activity, such as imipramine, reduce the amount of time spent in the immobile state. Therefore, the amount of immobility time during a test conducted after drug administration represents a useful indicator of antidepressant activity (Lucki et al 2001 Psychopharmacology 155:315-322; Porsolt et al., 1977, Nature 266:730-732).
Mice were evaluated in a single swimming test session of 6 minutes. Mice were placed in a transparent plastic cylinder 24 cm high with a diameter of 13 cm containing 10 cm of water with ambient temperature control generally from 22±2° C. Mice were placed in the water for 6 minutes and the duration of immobility during the last 4 minutes was measured.
Animals were observed by a blinded observer. […] The amount of time each animal spent in the immobile state (and the latency to the first bout of immobility) was recorded and used for statistical analysis of compound effect. Group differences were evaluated by student's t-test (reference substance) or one-way ANOVA followed by post-hoc Dunnett's test (test substances). […]
Male mice (strain NLMN) weighing 25-35 g were used for testing. […] The mice were videotaped for 6 minutes, and the last 4 minutes of video were analyzed by a blinded observer off-line. […] The amount of time each animal spent in the immobile state was recorded and used for statistical analysis of compound effect. Group differences were evaluated by student's t-test or one-way ANOVA followed by post-hoc Dunnett's test.
Mice were individually placed in a cylinder (height=24 cm; diameter=13 cm) containing 10 cm water (22° C.) from which they cannot escape. The mice were placed in the water for 6 minutes and the duration of immobility during the last 4 minutes was measured. […]

[2] = system: rats; assay: Forced Swim Test in rats; format: in vivo, Wistar rats
Description: as §1
Male Wistar rats weighing 197-251 g were used for the rat test. Rats were evaluated according to a two-session procedure with a swimming session of 15 minutes on the first day of the experiment (Session 1) followed 24 hours later by a 5-minute swimming test (Session 2). […] Rats were placed in the water 24 h later for 5 minutes (Session 2) and the duration of immobility was measured.
Animals were observed by a blinded observer. […] The amount of time each animal spent in the immobile state (and the latency to the first bout of immobility) was recorded and used for statistical analysis of compound effect. […]

[3] = target: hERG channel (Homo sapiens (Human), UniProt Q12809); assay: hERG channel inhibition, whole cell patch clamp; format: cell-based; settings: 10 μM compound
Chain of hERG channel (Q12809 whole entry): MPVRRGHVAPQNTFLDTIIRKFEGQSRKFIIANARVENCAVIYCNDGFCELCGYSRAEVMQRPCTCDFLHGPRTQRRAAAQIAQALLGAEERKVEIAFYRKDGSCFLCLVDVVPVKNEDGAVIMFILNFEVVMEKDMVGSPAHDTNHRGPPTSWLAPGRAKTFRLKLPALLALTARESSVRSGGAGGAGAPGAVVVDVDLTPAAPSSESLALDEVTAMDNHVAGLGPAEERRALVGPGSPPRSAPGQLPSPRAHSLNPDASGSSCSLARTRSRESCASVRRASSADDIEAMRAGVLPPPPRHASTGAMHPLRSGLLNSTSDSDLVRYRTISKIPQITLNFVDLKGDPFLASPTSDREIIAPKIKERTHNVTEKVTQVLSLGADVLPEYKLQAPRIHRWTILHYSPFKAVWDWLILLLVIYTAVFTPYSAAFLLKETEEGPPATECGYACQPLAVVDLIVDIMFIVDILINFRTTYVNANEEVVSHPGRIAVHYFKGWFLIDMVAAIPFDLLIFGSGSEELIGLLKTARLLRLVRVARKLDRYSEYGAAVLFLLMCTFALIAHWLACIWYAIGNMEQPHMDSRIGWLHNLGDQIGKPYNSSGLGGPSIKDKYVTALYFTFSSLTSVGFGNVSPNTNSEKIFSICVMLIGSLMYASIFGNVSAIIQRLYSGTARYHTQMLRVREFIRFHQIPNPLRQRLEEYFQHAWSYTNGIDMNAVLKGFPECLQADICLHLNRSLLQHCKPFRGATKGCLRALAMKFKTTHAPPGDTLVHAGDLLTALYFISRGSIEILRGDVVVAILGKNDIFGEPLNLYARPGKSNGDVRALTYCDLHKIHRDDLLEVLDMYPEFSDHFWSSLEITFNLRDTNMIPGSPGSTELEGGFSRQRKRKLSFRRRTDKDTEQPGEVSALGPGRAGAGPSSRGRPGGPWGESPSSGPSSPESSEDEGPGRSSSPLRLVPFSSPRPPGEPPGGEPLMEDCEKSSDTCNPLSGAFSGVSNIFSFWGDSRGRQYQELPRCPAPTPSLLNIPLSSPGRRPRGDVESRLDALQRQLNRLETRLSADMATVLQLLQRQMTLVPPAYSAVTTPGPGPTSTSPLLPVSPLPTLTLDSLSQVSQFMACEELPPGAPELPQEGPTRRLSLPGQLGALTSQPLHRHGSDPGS
Protocol: The assay was performed on hERG channel stably expressed in HEK293 cells. The cells were cultured at 37° C. in a humidified CO2 incubator in the growth medium consisting of DMEM, 10% fetal bovine serum and antibiotics. Prior to the assay, the cells were seeded onto a 12 mm PDL-coated glass coverslip and cultured in a 35 mm Petri dish. After 16 to 40 hr culture, the cover slip was transferred into the chamber of OctaFlow perfusion system (ALA Instrument) and under a constant flow of extracellular solution (140 mM NaCl, 4 mM KCl, 1 mM MgCl2, 2 mM CaCl2, 10 mM HEPES, 10 mM D-glucose, pH 7.35, osmolarity 290). Whole cell patch clamping was performed with a glass micropipette filled with intracellular solution (120 mM KCl, 1.75 mM MgCl2, 5.4 mM CaCl2, 10 mM HEPES, 10 mM EGTA, and 4 mM ATP-K2, PH 7.2, osmolarity 310). Giga-seal was maintained during the test. The voltage control and current measurement were carried out using Axon amplifier 700B, Digidata 1440A and CLAMPEX10 software (Molecular Devices). Whole-cell hERG currents were recorded following the Petroski protocol: the cell was held at −80 mV, and the voltage step jumped from −80 to 30 mV and stay for 2 sec with a 20 ms prepulse at −40 mV. After depolarization, the voltage was decreased to −40 mV and stay for 2 sec, and returned back to −80 mV. Test compound was applied by quartz capillary tubes tip (200 μm inner diameter), and the flow rate was controlled at 2-3 ml/min with OctaFlow perfusion system. Different concentrations of the compound were applied to the cells for 5 min and the hERG current was measured three times before, during and after compound treatment. The data were analyzed using Clampfit 10 software (Molecular Devices) to generate IC50 values.

[4] = target: CYP2D6 (Homo sapiens (Human), UniProt P10635); assay: CYP P450 enzyme inhibition in pooled human liver microsomes; format: in vitro ADME; settings: 10 μM compound, pooled HLM
Chain of CYP2D6 (P10635 whole entry): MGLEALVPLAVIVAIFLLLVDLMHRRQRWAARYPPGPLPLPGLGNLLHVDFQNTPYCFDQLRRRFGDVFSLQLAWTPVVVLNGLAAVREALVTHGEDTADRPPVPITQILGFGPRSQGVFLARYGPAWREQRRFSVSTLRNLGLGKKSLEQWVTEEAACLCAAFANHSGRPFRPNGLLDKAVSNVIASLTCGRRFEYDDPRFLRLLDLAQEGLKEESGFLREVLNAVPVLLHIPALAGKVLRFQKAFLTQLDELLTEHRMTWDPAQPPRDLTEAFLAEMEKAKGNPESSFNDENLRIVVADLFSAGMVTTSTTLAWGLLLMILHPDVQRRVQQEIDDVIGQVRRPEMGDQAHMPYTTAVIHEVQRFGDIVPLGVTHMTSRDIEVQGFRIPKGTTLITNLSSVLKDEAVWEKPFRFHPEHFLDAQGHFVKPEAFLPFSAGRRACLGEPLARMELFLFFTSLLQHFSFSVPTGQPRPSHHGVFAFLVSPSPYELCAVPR
Protocol: Those CYP isoforms and their corresponding probe substrates are as follows: CYP1A2 (phenacetin, 30 μM), CYP2C9 (tolutamide, 100 μM), CYP2C19 (S-mephenytoin, 40 μM), CYP2D6 (dextromethorphan, 5 μM) and CYP3A4 (midazolam, 1 μM). All probe substrates were used at concentrations near or below their Kms. For experiment, a reaction mixture of test compound at 10 μM or in serial dilution, CYP probe substrate described above and 0.2 mg/mL pooled HLM in phosphate buffer, pH 7.4 in a final volume of 200 μL was pre-incubated at 37° C. for 10 minutes in triplicate. The reaction was initiated by addition of NADPH at final concentration of 1 mM. The reaction was terminated after 10 minutes (CYP1A2, CYP2D6 and CYP3A4) or 30 minutes (CYP2C9 and CYP2C19) by addition of 100 μL ice-cold acetonitrile with internal standard (IS). The samples were then centrifuged at 13,000 rpm and the supernatants were injected to LC-MS/MS (Agilent Technologies) to quantify the concentration of the specific metabolites of the probe substrates formed by individual CYP450 isoforms. The inhibition ratio is calculated as: (Mt−M0)/Mwater×100% in which Mt and M0 represent the concentrations of the specific probe substrate metabolite, which was formed by individual CYP450 isoform, at the beginning and end of the reaction in the presence of test compound; while Mwater represents the concentration of the specific metabolite at the end of the reaction in the absence of test compound. Test compound concentration-dependent response data experiments performed in triplicate.

[5] = system: rats; assay: Pentylenetetrazole (PTZ) Seizure Test; format: in vivo; settings: 10 mg/kg p.o. 30 min before PTZ 100 mg/kg s.c.
Protocol: Rats, placed in individual macrolon cages (25×19×13 cm), were injected with pentylenetetrazole (PTZ) (100 mg/kg s.c.). The occurrence and latency of clonic and tonic convulsions and death were noted over a 30 minute period. 15 rats were studied per group. The test was performed blind.
(§2) Test compound E1-8.2 was administered as the free base.
Compounds were evaluated typically using 0.5% dimethylsulfoxide, 4% hydroxypropyl-b-cyclodextrin water as a vehicle at 1 or more doses (e.g., 1, 3 and 10 mg/kg), administered p.o. 30 minutes before PTZ, and compared with a vehicle control group. Diazepam (16 mg/kg p.o.), administered 60 minutes before PTZ, was used as reference substance. The experiment was performed over 2 separate sub-experiments with N=7 to 8 animals per group and per sub-experiment. Quantitative data (latencies) with the test substance was analyzed by comparing treated groups with vehicle control using Kruskal-Wallis test followed by Mann-Whitney U test. Quantitative data with the reference substance was analyzed using Mann-Whitney U test. Quantal data (frequencies) was analyzed by comparing treated groups with vehicle control using Fisher's Exact Probability tests (*=p<0.05; **=p<0.01; ***=p<0.001).

[6] = system: rats; assay: Electroconvulsive Threshold Test (ECT); format: in vivo
Protocol: as §2
Rats were administered ECS (rectangular current: 0.6 ms pulse width, 1.5 s duration, 200 Hz) via earclip electrodes connected to a constant current shock generator (Ugo Basile: type 7801). Test compounds were administered by oral gavage (p.o.) 1 hour before the test at a dose volume of 5 mL/kg.
Treatment groups of 20 rats were exposed to ECS as follows: The first animal was exposed to 30 mA of ECS. […] (increases of 5 mA) until the first tonic convulsion was observed. Once the first tonic convulsion was observed, the intensity of ECS was decreased by 2 mA for the next animal and then decreased or increased by 2 mA from animal to animal depending on whether the previous animal convulsed or not. If the first animal did convulse (tonic convulsions) within 5 seconds, animal no 2 is exposed to 25 mA, etc. . . . (decreases of 5 mA) until the absence of tonic convulsions was observed. At this point, the intensity of ECS was increased by 2 mA for the next animal and then decreased or increased by 2 mA from animal to animal depending on whether the previous animal convulsed or not. The minimum current intensity applied is 5 mA and the maximum 95 mA. The first 5 animals serve to approach threshold current and were not included in the analysis. The results are presented as the mean current intensity administered to the final 15 animals of a group. The test was performed blind. A positive percent change indicates an anticonvulsant effect. A negative percent change indicates a proconvulsant effect. The test substance was evaluated at 4 doses, typically using 0.5% dimethylsulfoxide, 4% hydroxypropyl-b-cyclodextrin water as a vehicle, and administered p.o. 60 minutes before ECS, and compared with a vehicle control group. Diazepam (16 mg/kg p.o.), administered under the same experimental conditions, was used as reference substance. The experiment included 6 groups. Data with the test substance was analyzed by comparing treated groups with vehicle control using one-way ANOVA followed by Dunnett's t tests.

Row | Compound | hERG @ 10 μM (%) [3] | CYP2D6 @ 10 μM (%) [4] | also measured
1 | CN(C)CCCN1c2ccccc2CCc2ccccc21 [imipramine] | – | – | antidepressant activity (immobility time) ([1]; 32 mpk i.p. once 30 min before the test): showed the expected antidepressant activity; antidepressant activity (immobility time) ([1]; 64 mpk p.o. once 60 min before the test): showed the expected antidepressant activity; antidepressant activity (immobility time) ([1]; 128 mpk p.o. once 60 minutes before the test on Day 7): showed the expected antidepressant activity; antidepressant activity (immobility time) ([2]; 32 mpk i.p. 3 times: 24 h, 4 h and 30 min before Session 2): showed the expected antidepressant activity; antidepressant activity (immobility time) ([2]; 64 mpk p.o. 3 times: 24 h, 4 h and 60 min before Session 2): showed the expected antidepressant activity
2 | Cc1ccc(COC(=O)N2CC[C@H](CNc3cnc(C)cn3)C(F)(F)C2)cc1 [Compound E1-21.26, R-4-methylbenzyl 3,3-difluoro-4-((5-methylpyrazin-2-ylamino)-methyl)piperidine-1-carboxylate] | 39% | 32% | change in latency to death [5]: +31%; change in number of deaths vs vehicle controls [5]: −82%; activity on electroconvulsive threshold ([6]; 3 and 10 mpk p.o., mesylate salt): anticonvulsant activity
3 | FC(F)(F)c1ccc(C(F)(F)CN2CCC(Nc3ncnc4[nH]ncc34)CC2)cc1 [LX-1, reference compound] | – | 93% | –
4 | CN1C(=O)CN=C(c2ccccc2)c2cc(Cl)ccc21 [diazepam, reference compound] | – | – | activity on electroconvulsive threshold ([6]; 16 mpk p.o.): showed the expected anticonvulsant activity
5 | Cc1ccc(COC(=O)N2CC[C@H](CNc3cnccn3)C(F)(F)C2)cc1 [Compound E1-21.2, R-4-methylbenzyl 3,3-difluoro-4-((pyrazin-2-ylamino)methyl)piperidine-1-carboxylate] | 27% | 97% | –
6 | Cc1ccc(COC(=O)N2CC[C@H](CNc3nc4ccccn4n3)C(F)(F)C2)cc1 [Compound E1-9.2, (+)-R-4-methylbenzyl 4-(([1,2,4]triazolo[1,5-a]pyridin-2-ylamino)methyl)-3,3-difluoropiperidine-1-carboxylate] | 38% | 14% | –
7 | O=C(OCc1ccc(F)cc1)N1CC[C@H](CNc2nccn3cnnc23)C(F)(F)C1 [Compound E1-1.4, R-4-fluorobenzyl 4-(([1,2,4]triazolo[4,3-a]pyrazin-8-ylamino)methyl)-3,3-difluoropiperidine-1-carboxylate] | 11% | 19% | –
8 | O=C(OCc1ccc(Cl)cc1)N1CC[C@H](CNc2nccn3cnnc23)C(F)(F)C1 [Compound E1-1.3, R-4-chlorobenzyl 4-(([1,2,4]triazolo[4,3-a]pyrazin-8-ylamino)methyl)-3,3-difluoropiperidine-1-carboxylate] | 19% | 37% | –
9 | Cc1ccc(COC(=O)N2CC[C@H](CNc3ncc4cn[nH]c4n3)C(F)(F)C2)cc1 [Compound E1-8.2, (+)-R-4-methylbenzyl-4-((1H-pyrazolo[3,4-d]pyrimidin-6-ylamino)methyl)-3,3-difluoropiperidine-1-carboxylate] | 57% | 83% | activity on electroconvulsive threshold ([6]; 0.5 and 2 mpk p.o., free base): modest proconvulsant activity; activity on electroconvulsive threshold ([6]; 10 and 20 mpk p.o., free base): anticonvulsant activity
10 | Cc1ccc(COC(=O)N2CC[C@H](CNc3cncc4nncn34)C(F)(F)C2)cc1 [Compound E1-2.2, R-4-methylbenzyl 4-(([1,2,4]triazolo[4,3-a]pyrazin-5-ylamino)methyl)-3,3-difluoropiperidine-1-carboxylate] | 32% | 18% | –
11 | Cc1ccc(COC(=O)N2CC[C@@H](CNc3nccn4cnnc34)C(F)(F)C2)cc1 [Compound E2-1.2, (−)-S-4-methylbenzyl 4-(([1,2,4]triazolo[4,3-a]pyrazin-8-ylamino)methyl)-3,3-difluoropiperidine-1-carboxylate] | 22% | – | –
12 | Cn1c(=O)c2[nH]cnc2n(C)c1=O [theophylline, reference compound] | – | – | activity on electroconvulsive threshold ([6]; 128 mpk p.o.): showed the expected proconvulsant activity
